Measured values reported in patent publication US20260232767A1, “INTERLEUKIN-23 RECEPTOR ANTAGONIST PEPTIDES FOR USE IN THE TREATMENT OF PSORIASIS” (Janssen Pharmaceutica NV, priority 2023, published 2026).

Tested on: subjects with moderate-to-severe plaque psoriasis
Test: IGA score, Example 1
Type: in vivo, human
Details: Week 16
Procedure: The Investigator's Global Assessment (IGA) documents the investigator's assessment of the participant's psoriasis at a given time point. Overall lesions are graded for induration, erythema, and scaling. The participant's psoriasis is assessed as cleared (0), minimal (1), mild (2), moderate (3), or severe (4).
This was a randomized, double-blind, placebo-controlled, dose-ranging, parallel group, multicenter, interventional study in subjects with moderate-to-severe plaque psoriasis. A target of 240 subjects were enrolled in this study with 40 subjects planned per intervention group.
Clinician-reported outcomes including Psoriasis Area and Severity Index (PASI), Body Surface Area (BSA), Investigator's Global Assessment (IGA), Nail Psoriasis Area and Severity Index (NAPSI), Fingernail Physician's Global Assessment (f-PGA), Static Physician's Global Assessment of Genitalia (s-PGA-G), Physician's Global Assessment of Hands and/or Feet (hf-PGA), and Scalp Specific Investigator Global Assessment (ss-IGA) were obtained at Week 0, 8, and 16. PASI and IGA were also obtained at Weeks 1, 2, 4, and 12, and at Week 20, four weeks after the administration of the tablets has stopped.

[1] = 25 mg BID, peak plasma conc. <Q1, N=2
[2] = 25 mg BID, peak plasma conc. Q1 to <Q2, N=2
[3] = 25 mg BID, peak plasma conc. Q2 to <Q3, N=2
[4] = 25 mg BID, peak plasma conc. ≥Q3, N=2
[5] = 25 mg BID, trough plasma conc <Q1
[6] = 25 mg BID, trough plasma conc Q1 to <Q2
[7] = 25 mg BID, trough plasma conc Q2 to <Q3
[8] = 25 mg BID, trough plasma conc ≥Q3
[9] = 25 mg QD, peak plasma conc. <Q1, N=2
[10] = 25 mg QD, peak plasma conc. Q1 to <Q2, N=2
[11] = 25 mg QD, peak plasma conc. Q2 to <Q3, N=2
[12] = 25 mg QD, peak plasma conc. ≥Q3, N=2
[13] = 25 mg QD, trough plasma conc <Q1
[14] = 25 mg QD, trough plasma conc Q1 to <Q2
[15] = 25 mg QD, trough plasma conc Q2 to <Q3
[16] = 25 mg QD, trough plasma conc ≥Q3
[17] = 50 mg QD, peak plasma conc. <Q1, N=2
[18] = 50 mg QD, peak plasma conc. Q1 to <Q2, N=2
[19] = 50 mg QD, peak plasma conc. Q2 to <Q3, N=2
[20] = 50 mg QD, peak plasma conc. ≥Q3, N=2
[21] = 50 mg QD, trough plasma conc <Q1
[22] = 50 mg QD, trough plasma conc Q1 to <Q2
[23] = 50 mg QD, trough plasma conc Q2 to <Q3
[24] = 50 mg QD, trough plasma conc ≥Q3
[25] = 100 mg BID, peak plasma conc. <Q1, N=2
[26] = 100 mg BID, peak plasma conc. Q1 to <Q2, N=3
[27] = 100 mg BID, peak plasma conc. Q2 to <Q3, N=2
[28] = 100 mg BID, peak plasma conc. ≥Q3, N=3
[29] = 100 mg BID, trough plasma conc <Q1

## CC(=O)NCCCC[C@@H]1NC(=O)[C@H](Cc2c[nH]c3c(C)cccc23)NC(=O)[C@H]([C@@H](C)O)NC(=O)[C@H](CC(N)=O)NC(=O)[C@@H](NC(C)=O)C(C)(C)SSC(C)(C)[C@@H](C(=O)N[C@@H](Cc2ccc(OCCN)cc2)C(=O)N[C@@H](Cc2ccc3ccccc3c2)C(=O)NC2(C(=O)N[C@@H](CCC(=O)O)C(=O)N[C@@H](CC(N)=O)C(=O)N[C@@H](Cc3cccnc3)C(=O)N(C)CC(N)=O)CCOCC2)NC1=O [IL-23 receptor antagonist peptide, Ac-[Pen]*-N-T-[W(7-Me)]-[Lys(Ac)]-[Pen]*-Phe[4-(2-aminoethoxy)]-[2-Nal]-[THP]-E-N-[3-Pal]-Sarc-NH2 (*[Pen]-[Pen]* formdisulfidebond)]
25 mg BID
  IGA 0 or 1 treatment difference vs placebo: 39.5% (21.7%,
  IGA 0 treatment difference vs placebo: 14.6% (4.0%,
  Subjects achieving IGA Score = 0: (14.6%)
  Subjects achieving IGA Score = 0 or 1: (51.2%)
25 mg BID, N=41
  IGA score 0, %: (14.6) %
  IGA score 0/1, %: (51.2) %
[1]
  IGA Score = 0, n subjects: 0
  IGA Score = 0 or 1, n subjects: 0
[2]
  IGA Score = 0, n subjects: 0
  IGA Score = 0 or 1, % subjects: (50.0%)
  IGA Score = 0 or 1, n subjects: 1
[3]
  IGA Score = 0, n subjects: 0
  IGA Score = 0 or 1, % subjects: (50.0%)
  IGA Score = 0 or 1, n subjects: 1
[4]
  IGA Score = 0, % subjects: (50.0%)
  IGA Score = 0, n subjects: 1
  IGA Score = 0 or 1, % subjects: (50.0%)
  IGA Score = 0 or 1, n subjects: 1
[5]
  IGA Score = 0, subjects: 2 (33.3%)
  IGA Score = 0 or 1, subjects: 4 (66.7%)
[6]
  IGA Score = 0, subjects: 1 (16.7%)
  IGA Score = 0 or 1, subjects: 1 (16.7%)
[7]
  IGA Score = 0, subjects: 0
  IGA Score = 0 or 1, subjects: 4 (66.7%)
[8]
  IGA Score = 0, subjects: 2 (33.3%)
  IGA Score = 0 or 1, subjects: 100.0%
25 mg QD
  IGA 0 or 1 treatment difference vs placebo: 27.9% (10.5%,
  IGA 0 treatment difference vs placebo: 16.3% (5.3%,
  Subjects achieving IGA Score = 0: (16.3%)
  Subjects achieving IGA Score = 0 or 1: (39.5%)
25 mg QD, N=43
  IGA score 0, %: (16.3) %
  IGA score 0/1, %: (39.5) %
[9]
  IGA Score = 0, n subjects: 0
  IGA Score = 0 or 1, % subjects: (50.0%)
  IGA Score = 0 or 1, n subjects: 1
[10]
  IGA Score = 0, n subjects: 0
  IGA Score = 0 or 1, % subjects: (50.0%)
  IGA Score = 0 or 1, n subjects: 1
[11]
  IGA Score = 0, % subjects: (50.0%)
  IGA Score = 0, n subjects: 1
  IGA Score = 0 or 1, % subjects: (50.0%)
  IGA Score = 0 or 1, n subjects: 1
[12]
  IGA Score = 0, n subjects: 0
  IGA Score = 0 or 1, % subjects: (50.0%)
  IGA Score = 0 or 1, n subjects: 1
[13]
  IGA Score = 0, subjects: 1 (20.0%)
  IGA Score = 0 or 1, subjects: 2 (40.0%)
[14]
  IGA Score = 0, subjects: 2 (33.3%)
  IGA Score = 0 or 1, subjects: 3 (50.0%)
[15]
  IGA Score = 0, subjects: 0
  IGA Score = 0 or 1, subjects: 1 (20.0%)
[16]
  IGA Score = 0, subjects: 1 (16.7%)
  IGA Score = 0 or 1, subjects: 4 (66.7%)
50 mg QD
  IGA 0 or 1 treatment difference vs placebo: 46.5% (29.1%,
  IGA 0 treatment difference vs placebo: 34.9% (20.8%,
  Subjects achieving IGA Score = 0: 15 (34.9%)
  Subjects achieving IGA Score = 0 or 1: 25 (58.1%)
50 mg QD, N=43
  IGA score 0, %: 34.9%
  IGA score 0/1, %: 58.1%
[17]
  IGA Score = 0, n subjects: 0
  IGA Score = 0 or 1, n subjects: 0
[18]
  IGA Score = 0, % subjects: (100.0%)
  IGA Score = 0, n subjects: 2
  IGA Score = 0 or 1, % subjects: (100.0%)
  IGA Score = 0 or 1, n subjects: 2
[19]
  IGA Score = 0, n subjects: 0
  IGA Score = 0 or 1, % subjects: (100.0%)
  IGA Score = 0 or 1, n subjects: 2
[20]
  IGA Score = 0, n subjects: 0
  IGA Score = 0 or 1, % subjects: (100.0%)
  IGA Score = 0 or 1, n subjects: 2
[21]
  IGA Score = 0, subjects: 1 (20.0%)
  IGA Score = 0 or 1, subjects: 2 (40.0%)
[22]
  IGA Score = 0, subjects: 3 (60.0%)
  IGA Score = 0 or 1, subjects: 4 (80.0%)
[23]
  IGA Score = 0, subjects: 2 (40.0%)
  IGA Score = 0 or 1, subjects: 2 (40.0%)
[24]
  IGA Score = 0, subjects: 2 (40.0%)
  IGA Score = 0 or 1, subjects: 3 (60.0%)
100 mg BID
  IGA 0 or 1 treatment difference vs placebo: 52.8% (36.0%,
  IGA 0 treatment difference vs placebo: 45.3% (30.6%,
  Subjects achieving IGA Score = 0: (45.2%)
  Subjects achieving IGA Score = 0 or 1: (64.3%)
100 mg BID, N=42
  IGA score 0, %: 45.2%
  IGA score 0/1, %: 64.3%
[25]
  IGA Score = 0, % subjects: (50.0%)
  IGA Score = 0, n subjects: 1
  IGA Score = 0 or 1, % subjects: (100.0%)
  IGA Score = 0 or 1, n subjects: 2
[26]
  IGA Score = 0, % subjects: (66.7%)
  IGA Score = 0, n subjects: 2
  IGA Score = 0 or 1, % subjects: (66.7%)
  IGA Score = 0 or 1, n subjects: 2
[27]
  IGA Score = 0, % subjects: (50.0%)
  IGA Score = 0, n subjects: 1
  IGA Score = 0 or 1, % subjects: (50.0%)
  IGA Score = 0 or 1, n subjects: 1
[28]
  IGA Score = 0, % subjects: (66.7%)
  IGA Score = 0, n subjects: 2
  IGA Score = 0 or 1, % subjects: (100.0%)
  IGA Score = 0 or 1, n subjects: 3
[29]
  IGA Score = 0, subjects: 1 (25.0%)
  IGA Score = 0 or 1, subjects: 3 (75.0%)
100 mg BID, trough plasma conc Q1 to <Q2
  IGA Score = 0, subjects: 2 (40.0%)
